This is an account of results in patent US7632506B2, “Identification of new NY-ESO-1 epitopes recognized by CD4+ T-cells” (Ludwig Institute for Cancer Research, priority 2005, dated 2009).

The subject of test [1] is CD4+ T cells. The test can be described thus: IFN-γ ELISPOT of CD4+ T cells presensitized with overlapping NY-ESO-1 18 mer peptides. It counts as cell-based, human.
The subject of test [2] is CD4+ T cell clones NW2337-CD4-1 and NW2337-CD4-10. The test can be described thus: Peptide titration ELISPOT assay with overlapping NY-ESO-1 peptides. It counts as cell-based, human. Conditions: peptide 10 μM to 0.1 nM pulsed onto autologous EBV-B-cells. Here is the method:
The CD4^+ T cells were restimulated weekly with 1 μg/ml of the peptide being used. On day 12, each CD4^+ culture was assayed for NY-ESO-1 peptide recognition, using the ELISPOT assay of lager, et al., Proc. Natl. Acad. Sci. USA, 97(9):4760-4765 (2000), incorporated by reference. To elaborate on this procedure, flat-bottomed, 96-well nitrocellulose plates were coated with 5 μg/ml of anti-interferon-gamma antibody and incubated overnight at 4° C. After washing with PBS, plates were blocked with 10% human serum (HS) for 1 hour at 37° C. Depending on the effector:target ratio used, various numbers of presensitized CD4^+ T-cells were added to each well along with 5×10^4 autologous peptide pulsed EBV transfected B cells (“EBV-B cells”) serving as target cells and incubated for 16 hours at 37° C. in TCM without IL-2. Plates were then washed extensively (6 times with a solution of 0.05% Tween 20/PBS), and biotinylated anti-interferon-gamma detection antibody was added at a concentration of 0.5 μg/ml. After incubation for 2 h at 37° C., plates were washed and incubated with ABC-AP Vectastain for 1 hour. Plates were washed again and developed with substrate (BCIP/NPT) until blue spots were visible. The number of blue spots/well represented the proportion of NY-ESO-1 specific CD4^+ T-cells/well was finally counted under the microscope.
To further identify the exact epitope required for CD4^+ T cell recognition by these two CD4^+ T cell clones, a peptide titration assay was performed using overlapping NY-ESO-1 peptides (FIG. 2) at concentrations between 10 μM and 0.1 nM, pulsed onto autologous EBV-B-cells and tested in ELISPOT assays (FIG. 3).

In another test the target is T1, HLA-DQB1 03011 (Homo sapiens, UniProt P01909+P01920).
T1 construct: peptide pulsed allogeneic EBV-B-cells with known HLA class II types as stimulator cells; endogenous in cells; host or cells: allogeneic patient-derived EBV-transformed B-cell lines (NW-2078, NW-2081, NW-2395, NW-2234, NW-2337, NW-1100, MZ-1257)
T1 sequence (P01920 33-261, other chains not shown): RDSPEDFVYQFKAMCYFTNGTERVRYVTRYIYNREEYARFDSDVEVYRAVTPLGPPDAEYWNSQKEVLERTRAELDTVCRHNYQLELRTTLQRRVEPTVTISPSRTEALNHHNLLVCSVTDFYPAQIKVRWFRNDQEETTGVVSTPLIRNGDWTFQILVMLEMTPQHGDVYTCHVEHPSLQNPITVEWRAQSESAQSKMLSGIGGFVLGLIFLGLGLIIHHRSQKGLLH
The experiment in a line: ELISPOT with peptide pulsed allogeneic EBV-B-cells of known HLA class II type (HLA restriction). The class given is cell-based. On the procedure:
In order to determine the HLA molecule to which the novel NY-ESO-1 peptides described above bind, the NW2337 CD4^+ T-cell clones NW2337-CD4-1 and NW2337-CD4-10, were tested in ELISPOT assays using a range of peptide pulsed allogeneic EBV-B-cells with known HLA class II types as stimulator cells as indicated in the following Table. The EBV-B-cell lines were HLA typed using standard methods as described above.
The NW2337-CD4-1 clone recognized allogenic peptide pulsed EBV-B cells from patients NW-2078, NW-2081, NW-2395, NW-2234, NW-2337, NW-1100 and MZ-1257. The allogenic EBV-B cells were recognized by the T cells when pulsed exogenously with either the NY-ESO-1 p49-66 or p55-72 as observed with autologous EBV-B cells described above. […] None of the EBV-B-cells lines that were not recognized by the T cells expressed this MHC allele. […] Again the NY-ESO-1 positive MZ-1257 EBV-B-cell line was recognized with or without exogenous peptide.

The subject of the next test is NW2337 CD4+ T cells. The test can be described thus: Cytokine ELISPOT assays (IFNγ, TNFα, IL4, IL10) of NW2337 CD4+ T cells. It counts as cell-based, human. The text has this:
All ELISPOT assay described, supra were designed to detect IFN-γ secretion by the T cell clones following specific antigen stimulation. To determine the phenotype of the NY-ESO-1 specific CD4^+ T cell clones from patient NW2337, additional ELISPOT assays were designed to detect additional cytokines.
The NW2337 CD4^+ T cells were stimulated with either NY-ESO-1 p49-66 and p55-72 peptides and T cells secretion of IFNγ, TNFα, IL4 and IL10measured by ELISPOT assay. […] IL4 and IL10 was not secreted by any of the NY-ESO-1 specific CD4^+ T-cell clones tested following stimulation with NY-ESO-1 p49-66 and p55-72 peptides.

In test [3] the test system is CD4+ T cells. The experiment in a line: IFN-γ ELISPOT of CD4+ T cells presensitized with overlapping NY-ESO-1 18 mer peptides. The class given is cell-based, human. Conditions: patient NW2337, limiting dilution.

With “P55-72: synthetic 18 mer peptide, amino acids 55-72 of NY-ESO-1 (GPGGGAPRGPHGGAASGL; UniProt P78358 55-72, looked up, fragment) [Peptide P55-72]”, the “Patient T cells 1” value in the test on CD4+ T cells [1] (IFN-γ ELISPOT, day 12, CD4+ T cells of patient 1, autologous peptide pulsed EBV-B cells as targets) is reported as “+ (+ indicates >50 spots (all + scores indicated were >100 spots))”. For the same substance, the “Patient T cells 2” value with CD4+ T cells [1] (IFN-γ ELISPOT, day 12, CD4+ T cells of patient 2, autologous peptide pulsed EBV-B cells as targets) is “+ (+ indicates >50 spots (all + scores indicated were >100 spots))”. Further, in the test with CD4+ T cells [1] (IFN-γ ELISPOT, day 12, CD4+ T cells of patient 3, autologous peptide pulsed EBV-B cells as targets), the “Patient T cells 3” value is recorded as “+ (+ indicates >50 spots (all + scores indicated were >100 spots))”. Further, in the test on CD4+ T cells [1] (three patients tested), the “patients whose CD4+ T cells recognized the peptide” value is recorded as “all three patients”. In test [2], the “recognition by clone NW2337-CD4-1” value is “recognized” and the “recognition by clone NW2337-CD4-10” value is recorded as “able to recognize”. Moreover, in the test with HLA-DQB1 03011 (only HLA-DQB1 03011 expressing allogenic EBV-B cell lines recognized), the “MHC class II allele presenting the peptide to NW2337-CD4-10 T cells” value was “HLA-DQB1 03011”. Further, the “MHC class II allele presenting the peptide to NW2337-CD4-1 T cells” value in the test with HLA-DQB1 03011 (only shared allele of the recognized peptide pulsed allogenic EBV-B cell lines) is given as “HLA-DQB1 03011”. Moreover, in the test on NW2337 CD4+ T cells, the “IFN-γ secretion by stimulated T cell clones” value is on record as “produced”, the “IL4 secretion by stimulated T cell clones” value is listed as “not secreted”, the “IL10 secretion by stimulated T cell clones” value is on record as “not secreted” and the “TNF-α secretion by stimulated T cell clones” value is “produced”. Also, in the test with CD4+ T cells [3], the “CD4+ T-cell clones generated by stimulation with peptide” value came out at 53.
